Experiments:
[1] = test system: homozygous bw^D/bw^D flies; test: P31 fed to developing homozygous brown-dominant flies; format: in vivo
Method: These experiments established a remarkable molecular interplay between the GAGAA insert of the bw^D allele and its target-compound P31.
Drug treatments of the bw^D flies were performed as for w^m4 flies except that 30 parental females were allowed to lay eggs. To obtain the heterozygous bw^D/+; st/st progeny, 30 virgin bw^D/bw^D; st/st homozygous females were mated with scarlet homozygous males for about 5 days before transferring them to experimental vials for egg laying.
The lethality of the progenies was calculated by counting the dead bodies and the total empty pupal shells. The A6 to A5 transformation was detected by bristles that form on abdominal segment A6 on males. All male adult flies obtained (˜50) were scored. Sex combs and halteres were individually inspected and photographed under the microscope (Axiophot, Zeiss) after dissecting at least 30 individuals and incubating them into 30 μl of 0.6 g/ml gum arabic; 4 g/ml chlorohydrate; 35% glycerol under a 24×24 mm coverslip as described (Ashburner, 1989). Since raising double heterozygous flies (Ubx^1/+; bw^D/+) led to lethality, we morphologically dissected eight late stage pupae after carefully removing the pupal envelope.

[2] = test system: GAF binding site from the Ubx promoter; test: DNase I footprinting on Ubx GAF binding site (GAF31 probe); design: species or system Drosophila melanogaster; settings: same probe as bw^D repeats
From the text: A footprint experiment was therefore carried out with this protein. The DNA probe (GAF31) used for this purpose contains besides the (AAGAG)2 motif (the target of P31) a typical promoter proximal GAF binding site derived from the Ubx gene (Biggin et al., 1988). This Ubx site contains the pentameric consensus sequence GAGAG of GAF (Omichinski et al., 1997). […] Selective Staining of GAGAA Satellite V in Nuclei and Polytene Chromosomes:
Synthetic oligonucleotides […] and […] were hybridized to obtain the W9 probe, oligomerized by ligation and digested with BamHI and BglII to obtain different tandem repeats. The following oligonucleotides were prepared identically: GAF31 is composed of the oligonucleotides […] and […] and, BrownI of oligonucleotides […] and […]. Fragments were purified on low-melt agarose gels and then cloned into a modified pSP64 vector, cut by BamHI and BglII. End-labeling was carried out following digestion with HindIII and a fill-in reaction with Klenow DNA polymerase. The labeled plasmid was cut with PvuII and the target fragments purified from low-melting agarose gels. The 657 bp EcoR1/Hinf1 fragment of the Drosophila histone SAR was cloned into the SmaI site of the modified pSP64 plasmid. This SAR probe was end-labeled following-digestion with EcoR1, then cut with ClaI and the resulting 347 bp fragment purified from low-melting agarose gels. […]

[3] = test system: homozygous bw^D/bw^D flies; test: P31 fed to developing homozygous brown-dominant flies; format: in vivo; settings: 40 homozygous bw^D males
[4] = fly stock of r12, bw^D/bw^+, homozygous per text

CN(C)CCCNC(=O)CCNC(=O)c1nc(NC(=O)CCNC(=O)c2nc(NC(=O)CCNC(=O)c3cc(NC(=O)c4nc(NC(=O)CCNC(=O)c5nccn5C)cn4C)cn3C)cn2C)cn1C [Compound P31, Im-β-Im-Py-β-Im-β-Im-β-Dp]
A6 to A5 [1, 4]: 100%
Lethality [1, 4]: 66%
Sex comb, range of teeth [1, 4]: 6-9
Sex comb (mean) ([1]; fly stock of r12, bw^D/bw^+, text: homozygous): 7.2
A6 to A5, number of bristles on A6 ([1]; fly stock of r12, bw^D/bw^+, text: homozygous bw^D males): 3-10
sex comb teeth, number mostly found ([1]; homozygous bw^D): 6
progeny that died at the pupal stage ([1]; homozygous bw^D flies): about two thirds
Pupae delay (hrs) ([1]; in vivo): ≥ 65 hrs-∞
delay of hatching ([1]; in vivo): 65 to 75 h
ligand concentration up to which no binding is noted at the Ubx GAF site [2]: > 25 nM
mean number of bristles on A6 [3]: 6
